# Reference: US8535617B2, “Blood cell barrier for a lateral flow device” (Kimberly-Clark Worldwide, Inc., priority 2007, dated 2013)
# Columns and labels:
# fresh human blood [1] = experiment: Blood separation on filter paper strips with a linoleic acid line, eluted with water; conditions: Whatman filter paper strip
# Method: (§1) A circle of Whatman filter paper (Qualitative 18.5 cm) was cut into strips (16 cm×2 cm). A thin line of linoleic acid was placed 8 cm from the bottom end of the strip using a syringe with needle, to lay down a thin line of liquid (approximately 5-10 μl). Next, a drop (20 μl) of fresh human blood was placed onto the strip 4 cm up from the bottom. A control strip was prepared in a similar manner except no linoleic acid was placed on the control strip. The strips were then attached to a glass rod, being 6 cm away from each other, using scotch tape. In a manner similar to paper chromatography, the strips were placed into a tall beaker (2 liter volume) containing deionized water (50 ml) in such a manner that the bottom end of the paper strips just entered the water. The water wicked up the vertically hanging strips.
# The system was allowed to run for another 20 minutes after which time the strips were taken out and allowed to air dry. Both strips were then sprayed with a ninhydrin spray to detect amino acids. […] The control had traces present along the length and a strong presence where the blood spot had stopped.
# fresh human blood [2] = experiment: Blood separation on nitrocellulose lateral flow membrane strips with a linoleic acid line
# Method: as §1
# The experiment described in Example 1 was repeated but using nitrocellulose lateral flow membrane strips (Bangs Laboratories Inc., Fishers Ind.) in place of the paper strips. The same procedure was conducted and at the end of the flow period (20 minutes) the strips were allowed to dry. […] In contrast, the control strip allowed the blood to travel up the entire length of the strip. […]
smiles,measurement,setting,value
"CCCCCC=CCC=CCCCCCCCC(=O)O [linoleic acid, 9,12-octadecadienoic acid]",movement of blood spot on strip,"fresh human blood [1]; 20 μl blood, line of approximately 5-10 μl linoleic acid, eluted by deionized water",halt at the line where the linoleic acid had been placed
same,ninhydrin spray detection of amino acids,"fresh human blood [1]; after air drying, visual purple color",presence of amino acids after the line
same,movement of blood spot on strip,"fresh human blood [2]; nitrocellulose lateral flow membrane strip, flow period 20 minutes",halted at the linoleic acid line
same,phenolphthalin / 3% hydrogen peroxide spot test for dried blood and hemoglobin,"fresh human blood [2]; nitrocellulose strip, beyond the linoleic acid line, visual pink color",no pink color developed
